Laboratory results reported in patent publication US4261892A, “2,4,6-Tris-(substituted-amino)-s-triazines” (American Cyanamid Company, priority 1979, dated 1981).
Like-named read-outs stand apart in the source and are kept apart here.

System: Adjuvant Arthritis In Rats
Test: Adjuvant-induced arthritis in rats (chronic inflammation accompanied by joint destruction)
Format: in vivo, Royal Hart, Wistar strain rats
Conditions: for inhibition in vivo at 50 mg/kg / inhibition in vivo at 25 mg/kg / inhibition in vivo at 100 mg/kg / inhibition in vivo at 200 mg/kg / inhibition in vivo at 400 mg/kg: Rattus norvegicus
Procedure: Groups of three Royal Hart, Wistar strain rats weighing 200±10 grams each were injected intradermally in the right hind paw with Freund's adjuvant (dried human tubercle bacilli in a mineral oil vehicle) at a dose of 2 mg./kg. of body weight. […] On the 14th and 21st day post challenge the diameter of the injected paw (primary lesion) was measured by micrometer caliper. The volume of inflamed paws were estimated from these measurements and the results are expressed as percent inhibition of swelling as compared to controls. At the same time, the other inflamed sites, such as ears, paws and tail (secondary lesions) were observed and each rat was graded as to degree of inflammation and swelling present. The grading is based on a scale of 0 to 24 where 0 represents a complete absence of induced arthritic nodules and 24 represents the maximum degree of inflammation. The mean grade for each treated group is calculated and the effects of each compound are expressed as percent inhibition of the control grade.

[1] = 336 h, oral 50 mg./kg. once daily days 0-13, Day 14, read-out: % Inhibition of Swelling (primary lesion) Day 14
[2] = 504 h, oral 50 mg./kg. once daily days 0-13, Day 21, read-out: % Inhibition of Swelling (primary lesion) Day 21
[3] = oral 50 mg./kg. once daily days 0-13, Day 14
[4] = oral 50 mg./kg. once daily days 0-13, Day 21
[5] = oral 50 mg./kg. once daily days 0-13
[6] = po, 336 h, read-out: % Inhibition of Swelling (primary lesion) Day 14
[7] = po, 504 h, read-out: % Inhibition of Swelling (primary lesion) Day 21
[8] = oral 25 mg./kg. once daily days 0-13, Day 14
[9] = oral 25 mg./kg. once daily days 0-13, Day 21
[10] = oral 100 mg./kg. once daily days 0-13, Day 14
[11] = oral 100 mg./kg. once daily days 0-13, Day 21
[12] = oral 100 mg./kg. once daily days 0-13
[13] = oral 200 mg./kg. once daily days 0-13, Day 14
[14] = oral 200 mg./kg. once daily days 0-13, Day 21
[15] = oral 400 mg./kg. once daily days 0-13, Day 14
[16] = oral 400 mg./kg. once daily days 0-13, Day 21

## CC(C)(C)C(C)(C)Nc1nc(N[C@H]2C[C@@H]3CC[C@H]2C3)nc(NC(C)(C)C(C)(C)C)n1 (relative stereo) [N^2-(exo[2.2.1]norbornyl)-N^4, N^6-bis(1,1,2,2-tetramethylpropyl)melamine]
[1]
  inhibition in vivo at 50 mg/kg: 49%
[2]
  inhibition in vivo at 50 mg/kg: 24%
[3]
  Mean Weight Gain (grams) Day 14: 97 grams
[4]
  Mean Weight Gain (grams) Day 21: 93 grams
[5]
  Dead/Treated at 21 Days: 0/3

## CC(C)(C)CC(C)(C)Nc1nc(NC(C)(C)C)nc(N2CC3CCC(CC3)C2)n1 [2-(tert-butylamino)-4-(1,1,3,3-tetramethylbutylamino)-6-(3-azabicyclo[3.2.2]nonyl)-s-triazine]
[6]
  inhibition in vivo at 50 mg/kg: 42%
[7]
  inhibition in vivo at 50 mg/kg: 14%
[3]
  Mean Weight Gain (grams) Day 14: 85 grams
[4]
  Mean Weight Gain (grams) Day 21: 87 grams
[5]
  Dead/Treated at 21 Days: 3/18

## CCCCNc1nc(N2CC3CCC(CC3)C2)nc(N2CC3CCC(CC3)C2)n1 [3,3'-(6-butylamino-s-triazin-2,4-diyl)bis-3-azabicyclo[3.2.2]nonane]
[6]
  inhibition in vivo at 50 mg/kg: 46%
[7]
  inhibition in vivo at 50 mg/kg: 32%
[3]
  Mean Weight Gain (grams) Day 14: 82 grams
[4]
  Mean Weight Gain (grams) Day 21: 107 grams
[5]
  Dead/Treated at 21 Days: 2/12

## CC(C)(C)CC(C)(C)Nc1nc(NC(C)(C)CC(C)(C)C)nc(N2CC3CCC(CC3)C2)n1 [3-[4,6-bis(1,1,3,3-tetramethylbutylamino)-s-triazin-2-yl]-3-azabicyclo[3.2.2]nonane]
[6]
  inhibition in vivo at 50 mg/kg: 59%
[7]
  inhibition in vivo at 50 mg/kg: 23%
[3]
  Mean Weight Gain (grams) Day 14: 76 grams
[4]
  Mean Weight Gain (grams) Day 21: 67 grams
[5]
  Dead/Treated at 21 Days: 2/18

## CC(C)(C)Nc1nc(NC(C)(C)C)nc(N2CC3CCC(CC3)C2)n1 [3-[4,6-bis(tert-butylamino)-s-triazin-2-yl]-3-azabicyclo[3.2.2]nonane]
[6]
  inhibition in vivo at 50 mg/kg: 61%
[7]
  inhibition in vivo at 50 mg/kg: 22%
[3]
  Mean Weight Gain (grams) Day 14: 87 grams
[4]
  Mean Weight Gain (grams) Day 21: 69 grams
[5]
  Dead/Treated at 21 Days: 1/9

## CC(C)(C)CC(C)(C)Nc1nc(NC(C)(C)C(C)(C)C)nc(N2CC3CCC(CC3)C2)n1 [3-[4-(1,1,3,3-tetramethylbutylamino)-6-[(1,1,2,2-tetramethylpropyl)amino]-s-triazin-2-yl]-3-azabicyclo[3.2.2]nonane]
[6]
  inhibition in vivo at 50 mg/kg: 74%
[7]
  inhibition in vivo at 50 mg/kg: 42%
[3]
  Mean Weight Gain (grams) Day 14: 66 grams
[4]
  Mean Weight Gain (grams) Day 21: 91 grams
[5]
  Dead/Treated at 21 Days: 0/12

## CC(C)(C)CC(C)(C)Nc1nc(Nc2ccc(F)cc2)nc(N2CC3CCC(CC3)C2)n1 [3-[4-p-fluoroanilino-6-(1,1,3,3-tetramethylbutylamino)-s-triazin-2-yl]-3-azabicyclo[3.2.2]nonane]
[6]
  inhibition in vivo at 50 mg/kg: 32%
[7]
  inhibition in vivo at 50 mg/kg: 18%
[3]
  Mean Weight Gain (grams) Day 14: 68 grams
[4]
  Mean Weight Gain (grams) Day 21: 50 grams
[5]
  Dead/Treated at 21 Days: 1/18

## CC(C)(C)C(C)(C)Nc1nc(NC(C)(C)C(C)(C)C)nc(N2CC3CCC(CC3)C2)n1 [3-{4,6-bis[(1,1,2,2-tetramethylpropyl)amino]-s-triazin-2-yl}-3-azabicyclo[3.2.2]nonane]
[6]
  inhibition in vivo at 25 mg/kg: 42%
  inhibition in vivo at 50 mg/kg: 58%
  inhibition in vivo at 100 mg/kg: 74%
[7]
  inhibition in vivo at 25 mg/kg: 24%
  inhibition in vivo at 50 mg/kg: 34%
  inhibition in vivo at 100 mg/kg: 41%
[8]
  % Inhibition of Control Grade (secondary lesion) Day 14: 44%
  Mean Weight Gain (grams) Day 14: 74 grams
[9]
  % Inhibition of Control Grade (secondary lesion) Day 21: 12%
  Mean Weight Gain (grams) Day 21: 70 grams
Oral 25 mg./kg. once daily days 0-13
  Dead/Treated at 21 Days: 1/18
[3]
  % Inhibition of Control Grade (secondary lesion) Day 14: 48%
  Mean Weight Gain (grams) Day 14: 56 grams
[4]
  % Inhibition of Control Grade (secondary lesion) Day 21: 20%
  Mean Weight Gain (grams) Day 21: 58 grams
[5]
  Dead/Treated at 21 Days: 0/36
[10]
  % Inhibition of Control Grade (secondary lesion) Day 14: 69%
  Mean Weight Gain (grams) Day 14: 73 grams
[11]
  % Inhibition of Control Grade (secondary lesion) Day 21: 45%
  Mean Weight Gain (grams) Day 21: 62 grams
[12]
  Dead/Treated at 21 Days: 1/18

## CC(=O)Oc1ccccc1C(=O)O [Aspirin]
[1]
  inhibition in vivo at 50 mg/kg: 23%
336 h, oral 100 mg./kg. once daily days 0-13, Day 14, read-out: % Inhibition of Swelling (primary lesion) Day 14
  inhibition in vivo at 100 mg/kg: 36%
336 h, oral 200 mg./kg. once daily days 0-13, Day 14, read-out: % Inhibition of Swelling (primary lesion) Day 14
  inhibition in vivo at 200 mg/kg: 48%
336 h, oral 400 mg./kg. once daily days 0-13, Day 14, read-out: % Inhibition of Swelling (primary lesion) Day 14
  inhibition in vivo at 400 mg/kg: 73%
[2]
  inhibition in vivo at 50 mg/kg: 3%
504 h, oral 100 mg./kg. once daily days 0-13, Day 21, read-out: % Inhibition of Swelling (primary lesion) Day 21
  inhibition in vivo at 100 mg/kg: 13%
504 h, oral 200 mg./kg. once daily days 0-13, Day 21, read-out: % Inhibition of Swelling (primary lesion) Day 21
  inhibition in vivo at 200 mg/kg: 27%
504 h, oral 400 mg./kg. once daily days 0-13, Day 21, read-out: % Inhibition of Swelling (primary lesion) Day 21
  inhibition in vivo at 400 mg/kg: 48%
[3]
  % Inhibition of Control Grade (secondary lesion) Day 14: 12%
  Mean Weight Gain (grams) Day 14: 56 grams
[4]
  % Inhibition of Control Grade (secondary lesion) Day 21: 9%
  Mean Weight Gain (grams) Day 21: 44 grams
[5]
  Dead/Treated at 21 Days: 2/21
[10]
  % Inhibition of Control Grade (secondary lesion) Day 14: 19%
  Mean Weight Gain (grams) Day 14: 48 grams
[11]
  % Inhibition of Control Grade (secondary lesion) Day 21: 8%
  Mean Weight Gain (grams) Day 21: 53 grams
[12]
  Dead/Treated at 21 Days: 18/63
[13]
  % Inhibition of Control Grade (secondary lesion) Day 14: 26%
  Mean Weight Gain (grams) Day 14: 40 grams
[14]
  % Inhibition of Control Grade (secondary lesion) Day 21: 17%
  Mean Weight Gain (grams) Day 21: 44 grams
Oral 200 mg./kg. once daily days 0-13
  Dead/Treated at 21 Days: 10/66
[15]
  % Inhibition of Control Grade (secondary lesion) Day 14: 58%
  Mean Weight Gain (grams) Day 14: 41 grams
[16]
  % Inhibition of Control Grade (secondary lesion) Day 21: 45%
  Mean Weight Gain (grams) Day 21: 55 grams
Oral 400 mg./kg. once daily days 0-13
  Dead/Treated at 21 Days: 18/57

## CC(C)(C)C(C)(C)Nc1nc(NC23CC4CC(CC(C4)C2)C3)nc(NC(C)(C)C(C)(C)C)n1 [N^2-1-adamantyl-N^4,N^6-bis(1,1,2,2-tetramethylpropyl)melamine]
[1]
  inhibition in vivo at 50 mg/kg: 47%
[2]
  inhibition in vivo at 50 mg/kg: 17%
[3]
  Mean Weight Gain (grams) Day 14: 94 grams
[4]
  Mean Weight Gain (grams) Day 21: 89 grams
[5]
  Dead/Treated at 21 Days: 1/12

## CC(C)(C)C(C)(C)Nc1nc(NC2C3CC4CC(C3)CC2C4)nc(NC(C)(C)C(C)(C)C)n1 (stereo not shown) [N^2-2-adamantyl-N^4,N^6-bis(1,1,2,2-tetramethylpropyl)melamine]
[1]
  inhibition in vivo at 50 mg/kg: 79%
[2]
  inhibition in vivo at 50 mg/kg: 83%
[3]
  Mean Weight Gain (grams) Day 14: 148 grams
[4]
  Mean Weight Gain (grams) Day 21: 181 grams
[5]
  Dead/Treated at 21 Days: 1/3
